Eleven compounds from EP2401611B1, “IMPROVED METHODS FOR IDENTIFICATION” (Cambridge Enterprise Limited, priority 2009, dated 2010) can be followed below.

Like-named read-outs stand apart in the source and are kept apart here. A value given as a limit tells only on which side of the number the result lay.

The test system of one test is Panc-2H4. Briefly: Human Panc-2H4 insulin suppression assay. The test is classed as cell-based. The text has this:
(§1) Two different assays for "classical" sstr2 functions were adopted: (1) cultured foetal rat pituitary cells secreted growth hormone which is inhibited by sstr2 agonists in a dose-dependent fashion and (2) selected glucose-sensitive sub-clones of the human Panc-1 cell line secrete insulin which is inhibited by sstr2 agonists in a dose-dependent fashion.
Glucose-sensitive sub-clones of the human Panc-1, a cell line derived from a pleiomorphic epithelioid carcinoma of the exocrine pancreas, were obtained essentially as described by Hamil et al. (2008) Biomed. Sci. Instrum. 44:441-6. Briefly, Panc-1 cells were subcultured in 24 well plates, and the medium was supplemented with an additional 5% glucose. […] The resulting sub-lines were then tested for glucose sensitivity by preparing wells of a 96-well plate (5 x 10^4 cells per well) which were then exposed to cultured medium containing a range of glucose concentrations (low glucose DMEM, DMEM, DMEM + 1% glucose, DMEM ± 2.5% glucose and DMEM + 5% glucose). After 24hrs incubation, the conditioned medium was collected and assayed for insulin secretion by ELISA (Linco; cat# EZHI-14K) in accordance with the manufacturer's instructions. […] Further 96 well plates were prepared using Panc-2H4 (5 x 10^4 cells per well) in DMEM. After 24hrs, the medium was switched to DMEM + 5% glucose containing various test agents at various concentrations (triplicate wells per condition). After a further 24hrs, the conditioned medium was harvested and the concentration of insulin was determined by ELISA as described above.
(§2) Results were reported as the mean ± SD, expressed as the fold change from cells in the presence of vehicle only.

For another test, the system named is THP-1 cells. Briefly: MCP-1 induced THP-1 cell migration (Transwell) assay. In kind it is cell-based, human. The settings on record: for "Classical" : "BSCI" potency ratio Human: Table 3, THP-1 migration ED50 versus Panc-2H4 insulin suppression ED50. The procedure: Leukocyte migration was measured using the 96-well format micro Transwell^RTM assay system from Neuroprobe (Gaithersburg, MD, USA). In principle, this assay consists of two chambers separated by a porous membrane. The chemoattractant is placed in the lower compartment and the cells are placed in the upper compartment. After incubation for a period at 37°C the cells move towards the chemoattractant, and the number of cells in the lower compartment is proportional to the chemoattractant activity (relative to a series of controls).
The method was performed essentially as previously described (Reckless & Grainger (1999) Biochem. J. 340:803-11).
First, the cell suspension to be placed in the upper compartment was prepared. The THP-1 cells were pelleted by centrifugation (770 x g; 4 mins) and washed with Geys Balanced Salt Solution with 1mg/ml BSA (GBSS + BSA). This wash was then repeated, and the cells re-pelleted before being resuspended in a small volume of GBSS + BSA for counting, for example using a standard haemocytometer.
The volume of GBSS + BSA was then adjusted depending on the number of cells present so that the cells were at final density of 4.45 x 10^6 cells per ml of GBSS + BSA. This ensured that there were 100,000 THP-1 cells in each 25µl of the solution to be placed in the upper chamber of the plate.
The suspension of THP-1 cells at 4.45 x 10^6 cells/ml was divided into three pots. To one pot the BSCI was added at an appropriate final concentration, in an appropriate vehicle (for example (S)- 3-(2',2'-dimethylpropanoylamino)-tetrahydropyridin-2-one was added at 1nM from a stock solution in GBSS). To the second pot, the BSCI was added at the same concentration as in the first pot, but additionally the sstr2 antagonist was also added (for example BIM 23454 [Tulipano et al. (2002) 143:1218-24] or BIM 23627 were added at 66nM final concentration from a stock solution in GBSS). To the third pot, GBSS + BSA plus vehicle as appropriate was added so that the volumes in three pots are equal, acting as a control.
Next, the chemoattractant solution to be placed in the lower compartment was prepared. […]. Note that, as recommended by Frow et al (Med. Res. Rev. 24:276-98) this is the concentration of MCP-1 which induces maximal migration in this system. This solution was divided into three pots, as for the cell suspension. To one pot, the BSCI was added to the same final concentration as was added to the cell suspension, in the second pot the BSCI and the sstr2 antagonist were both added at the same concentration as previously added to the cell suspension, while to the remaining pot GBSS + BSA plus vehicle as appropriate was added so that the volumes in the three pots were equal. Note that the volume of liquid that needs to be added to make the addition of the BSCI and the sstr2 antagonist compounds needs to be taken into account, when establishing the final concentration of MCP-1 in the solution for the lower compartment and the final concentration of cells in the upper compartment.
Once the chemoattractant solutions for the lower wells and cell solutions for the upper chambers were prepared, the migration chamber was assembled. 29 µl of the appropriate chemoattractant solution was placed into the lower well of the chamber. Assays were performed with at least triplicate determinations of each condition. Once all the lower chambers were filled, the porous membrane was applied to the chamber in accordance with the manufacturer's instructions. Finally, 25 µl of the appropriate cell solution was applied to each upper chamber. A plastic lid was placed over the entire apparatus to prevent evaporation.
The assembled chamber was incubated at 37 °C, 5% CO2, for 2 hours. A suspension of cells in GBSS + BSA was also incubated under identical conditions in a tube: these cells were used to construct a standard curve for determining the number of cells that migrated to the lower chamber under each condition. […]

The target of the next test is sstr2 (Homo sapiens, UniProt P30874). Briefly: [3H]-BN83250 equilibrium binding to THP-1 cells.
Sequence of sstr2 (P30874 whole entry): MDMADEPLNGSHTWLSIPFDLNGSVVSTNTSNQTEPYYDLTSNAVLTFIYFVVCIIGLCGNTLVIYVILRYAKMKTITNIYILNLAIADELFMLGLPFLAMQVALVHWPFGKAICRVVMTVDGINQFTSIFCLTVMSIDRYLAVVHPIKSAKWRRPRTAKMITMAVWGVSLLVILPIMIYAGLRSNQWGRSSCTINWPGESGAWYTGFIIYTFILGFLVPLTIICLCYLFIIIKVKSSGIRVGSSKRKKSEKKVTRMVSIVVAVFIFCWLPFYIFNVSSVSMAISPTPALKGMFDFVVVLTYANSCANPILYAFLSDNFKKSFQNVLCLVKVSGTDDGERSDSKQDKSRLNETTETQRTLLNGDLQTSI
Test [1] relates to rat peripheral blood leukocytes. Briefly: Rat chemokine-induced PBMC migration assay. In kind it is cell-based.
In a further test the test system is fetal rat pituicytes. Briefly: Rat pituicyte GH suppression assay. In kind it is cell-based. Particulars: for EC50: Table 3, read-out: Rat pituicyte GH suppression assay ED50.
From the text: as §1
Methods: Cultures of fetal rat pituicytes were established exactly as previously described (Murray et al. (2004) J. Clin. Endocrinol. Metab. 89:3027-32) by enzymatic dispersion. After 48hrs in low glucose DMEM plus 10% FCS, cells in 48 well plates (5 x 10^4 cells per well) were washed for 4hrs in serum-free DMEM and then incubated with test agents at various concentrations for a further 24hrs in serum-free DMEM. At the end of this period, the conditioned medium was harvested, any cell debris removed by centrifugation and assayed for GH using a commercially available ELISA (Linco; cat# EZRMGH-45K) in accordance with the manufacturer's instructions.
as §2

For test [2], the target named is type 2 somatostatin receptor (sstr2), human (human) (UniProt P30874). Briefly: cell-based or functional assay.
[3] abbreviates: Table 4, 0.01nM to 1,000nM in DMSO vehicle, read-out: Panc-2H4 insulin suppression assay ("classical" target) ED50.
Where [4] appears, read: Table 4, 0.01nM to 1,000nM in DMSO vehicle, read-out: Chemokine-induced THP-1 cell migration assay ("BSCI" target) ED50.
Where [5] appears, read: Table 4, THP-1 migration ED50 versus insulin suppression ED50.
Setting [6] is: Table 3, percentage suppression compared to vehicle.

Regarding `CC(=O)NC(CC(N)=O)C(=O)NC(C(=O)NCC1CCCC(CN)C1)C(C)c1c[nH]c2ccccc12` (mixture of isomers) [D], the “Panc-2H4 insulin suppression assay ("classical" target) Max Effect (%)” value in the test with Panc-2H4 (Table 4) was determined as 37%. In addition, the results for the EC50 in the test with Panc-2H4 (setting [3]) and in the test on THP-1 cells (setting [4]) were 650 nM and > 1000 nM, respectively. In addition, the “Chemokine-induced THP-1 cell migration assay ("BSCI" target) Max Effect (%)” value in the test on THP-1 cells (Table 4) was <10%.
Turning to `CC1(C(=O)N[C@H]2CCCCNC2=O)CCCCC1` [(S)-3-(1'-methylcyclohexyl-1'-carbonylamino)-caprolactam], the “competition with BN83250 binding to sstr2 (in words)” value at sstr2 was “also compete with BN83250 binding to sstr2 to a similar extent”.
For the compound `O=C1NCCCC[C@@H]1NC(=O)C12CC3CC(CC(C3)C1)C2` [BN83470, (S)-3-(admantane-1'-carbonylamino)-caprolactam], the Emax in the test with Panc-2H4 (Homo sapiens, Table 3, percentage suppression compared to vehicle, read-out: Human Panc-2H4 insulin suppression assay Max effect (%)) was < 10%; in test [1] (Rattus norvegicus, Leukocyte, Table 3, read-out: Rat chemokine-induced PBMC migration assay Max effect (%)), 100%; in the test on fetal rat pituicytes (Rattus norvegicus, Table 3, percentage suppression compared to vehicle, read-out: Rat pituicyte GH suppression assay Max effect (%)), 56%; in the test on THP-1 cells (Homo sapiens, THP-1, Table 3, read-out: Human chemokine-induced THP-1 migration assay Max effect (%)), 100%. In addition, the EC50 in test [1] (Rattus norvegicus, Leukocyte, Table 3, read-out: Rat chemokine-induced PBMC migration assay ED50) was 0.22 nM; with fetal rat pituicytes (Rattus norvegicus), 270 nM; in the test on THP-1 cells (Homo sapiens, THP-1, Table 3, read-out: Human chemokine-induced THP-1 migration assay ED50) it was 0.08 nM. The “"Classical" : "BSCI" potency ratio Rat” value in test [1] (Table 3, rat PBMC migration ED50 versus rat pituicyte GH suppression ED50) is reported as 0.0008. Moreover, the “"Classical" : "BSCI" potency ratio Human” value with THP-1 cells is on record as <0.00008. Moreover, the “competition with BN83250 binding to sstr2 (in words)” value at sstr2 is “also compete with BN83250 binding to sstr2 to a similar extent”.
Regarding `CC(c1c[nH]c2ccccc12)C(NC(=O)N1CCC(NC(N)=O)CC1)C(=O)NCC1CCCC(CN)C1` (centres unmarked) [Compound A], the EC50 in the test on THP-1 cells (setting [4]) is > 1000 nM.
Regarding `CC(c1c[nH]c2ccccc12)C(NC(=O)N1CC(=O)NC(=O)C1)C(=O)NCC1CCCC(CN)C1` (centres unmarked) [Compound B], in the test with Panc-2H4 (Table 4), the “Panc-2H4 insulin suppression assay ("classical" target) Max Effect (%)” value was determined as 52%. In addition, the EC50 amounted to 167 nM in the test on Panc-2H4 (setting [3]) and 220 nM with THP-1 cells (setting [4]). Further, the “Chemokine-induced THP-1 cell migration assay ("BSCI" target) Max Effect (%)” value with THP-1 cells (Table 4) is 100%. Further, the RATIO with THP-1 cells (setting [5]) was determined as 1.3.
For the compound `CC(c1c[nH]c2ccccc12)C(NC(=O)NC1CCCNC1=O)C(=O)NCC1CCCC(CN)C1` (centres unmarked) [Compound C], the “Panc-2H4 insulin suppression assay ("classical" target) Max Effect (%)” value in the test on Panc-2H4 (Table 4) amounted to 56%. Further, the EC50 in the test with Panc-2H4 (setting [3]) is 82 nM; with THP-1 cells (setting [4]), 2 nM. Besides, the “Chemokine-induced THP-1 cell migration assay ("BSCI" target) Max Effect (%)” value with THP-1 cells (Table 4) was 100%. Moreover, the RATIO in the test on THP-1 cells (setting [5]) was 0.02.
As to `CC(=O)NC(=O)C(NC(=O)N1CCC(n2c(=O)[nH]c3ccccc32)CC1)C(C)c1c[nH]c2ccccc12` (centres unmarked) [Compound E], the “Panc-2H4 insulin suppression assay ("classical" target) Max Effect (%)” value in the test on Panc-2H4 (Table 4) was <10%. Moreover, the EC50 with Panc-2H4 (setting [3]) and with THP-1 cells (setting [4]) was > 1000 nM each time. The “Chemokine-induced THP-1 cell migration assay ("BSCI" target) Max Effect (%)” value in the test on THP-1 cells (Table 4) was <10%.
`NCC1CCCC(CNC(=O)C(Cc2ccccc2)NC(=O)N2CCC(n3c(=O)[nH]c4ccccc43)CC2)C1` (centres unmarked) [F]: the “Panc-2H4 insulin suppression assay ("classical" target) Max Effect (%)” value in the test on Panc-2H4 (Table 4) was <10%. Further, the EC50 in the test on Panc-2H4 (setting [3]) and in the test on THP-1 cells (setting [4]) was > 1000 nM in each case. For the same compound, in the test on THP-1 cells (Table 4), the “Chemokine-induced THP-1 cell migration assay ("BSCI" target) Max Effect (%)” value is listed as <10%.
Take `C[C@@H](c1c[nH]c2ccccc12)[C@@H](NC(=O)N1CCC(n2c(=O)[nH]c3ccccc32)CC1)C(=O)NC[C@@H]1CCC[C@H](CN)C1` [L-779,976]: in the test on Panc-2H4 (setting [6]), the “Human Panc-2H4 insulin suppression assay Max effect (%)” value was found to be 40%. The EC50 turned out to be 17 nM in the test on Panc-2H4 (Table 3, read-out: Human Panc-2H4 insulin suppression assay ED50); 17 nM in the test on Panc-2H4 (setting [3]); 17 nM in the test on Panc-2H4 (Table 5, library screening hits, read-out: Panc-2H4 insulin suppression assay ("classical" target) ED50); 2.9 nM with fetal rat pituicytes; 450 nM in the test with THP-1 cells (Table 3, read-out: Human chemokine-induced THP-1 migration assay ED50); 450 nM in the test on THP-1 cells (setting [4]). The EC50 in the test on THP-1 cells (Table 5, library screening hits, read-out: Chemokine-induced THP-1 cell migration assay ("BSCI" target) ED50) is 450 nM. Moreover, the “Panc-2H4 insulin suppression assay ("classical" target) Max Effect (%)” value in the test with Panc-2H4 (Table 4) and in the test on Panc-2H4 (Table 5) was 40% throughout. For the same compound, in the test on fetal rat pituicytes (setting [6]), the “Rat pituicyte GH suppression assay Max effect (%)” value is 55%. Also, in the test with THP-1 cells (Table 3), the “Human chemokine-induced THP-1 migration assay Max effect (%)” value turned out to be 65%. Further, in the test on THP-1 cells, the “"Classical" : "BSCI" potency ratio Human” value amounted to 27. For the same compound, the “Chemokine-induced THP-1 cell migration assay ("BSCI" target) Max Effect (%)” value in the test with THP-1 cells (Table 4) and with THP-1 cells (Table 5) was 65% throughout. Besides, the RATIO amounted to 26.5 with THP-1 cells (setting [5]) and 26.5 in the test on THP-1 cells (Table 5, THP-1 migration ED50 versus insulin suppression ED50).
cortistatin (peptide) displayed an ED50 for inhibition of MCP-1 induced THP-1 cell migration in test [2] of 75 nM.
On to “somatostatin-28 (from UniProt P61278 89-116) (peptide)”, for which, in test [2], the "Classical" : "BSCI" potency ratio, Human is 6; the ED50 for inhibition of MCP-1 induced THP-1 cell migration came out at 0.9 nM; the Human Panc-2H4 insulin suppression assay, ED50 stood at 0.14 nM; the Human chemokine-induced THP-1 migration assay, ED50 was 0.9 nM.
